Source: US20240264159A1 (priority 2021, published 2024)

Biological target: Spike SARS-CoV-2 foreign nanoparticles / coated host ACE2 nanoparticles (Severe acute respiratory syndrome coronavirus 2, UniProt P0DTC2, D614G)
Format: biochemical

Q: For `C[C@@H]1O[C@@H](O[C@H]2C[C@@H](O)[C@]3(CO)[C@H]4[C@H](O)C[C@]5(C)[C@@H](C6=CC(=O)OC6)CC[C@]5(O)[C@@H]4CC[C@]3(O)C2)[C@H](O)[C@H](O)[C@H]1O` [ouabain], which “neutralization/blocking of fusion, coated host ACE2 nanoparticles” value is on record?
A: Neutralization was further blocked
